Data published in patent US8507488B2, “Fused nitrogen containing heterocycles and compositions thereof as kinase inhibitors” (IRM LLC, priority 2008, dated 2013).
Read-outs that look alike come from different tables or passages of the source.

Experiments:
Tel-TrkB = molecular target: T1, Tel-TrkB (Homo sapiens, UniProt Q16620); experiment: Inhibition of proliferation of Ba/F3 cells expressing Tel-TrkB (BaF3/Tel-TrkB); assay type: cell-based
T1 construct: dimerization domain of Tel (ETV6) transcription factor (fusion partner, human ETV6 P41212); expressed in transfected cells; host or cells: luciferase expressing Ba/F3 murine hematopoietic progenitor cells; the other entry of the earlier key: ETV6 (P41212, Transcription factor ETV6)
Method in brief: (§1)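 Luciferase-expressing murine Ba/F3 cells transformed with human Tel-TrkA or Tel-TrkB, plated at 2000 cells/well in IL3-free RPMI/10% FBS. Exposed to 12 concentrations of 3-fold serially diluted compound for 48 hours at 37° C, 5% CO2. Bright Glo luminescence read-out, with IC50 from linear regression of percent inhibition.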

[1] = molecular target: T2, full length rTrkA and mNGF (Rattus norvegicus, UniProt P35739); experiment: Inhibition of proliferation of Ba/F3 cells co-expressing full length rTrkA and mNGF (BaF3/TrkA-NFG); assay type: cell-based; conditions: for IC50 in BaF3/TrkA-NFG CTG cellular assay: BaF3/TrkA-NFG cells; for BaF3 TRKA-NGF CTG IC 50: BaF3 TRKA-NGF cells, CTG readout
T2 construct: co-expressing full length rTrkA and mNGF; expressed in transfected cells; host or cells: Ba/F3 cells

parental BaF3 cells = experiment: Proliferation of parental (untransformed) Ba/F3 cells maintained with IL3; assay type: cell-based, murine; conditions: Mus musculus
Method in brief: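 Untransformed murine Ba/F3 cells kept in RPMI/10% FCS with 5 ng/ml murine IL3, plated at 2000 cells/well and exposed to 12 concentrations of compound for 48 h at 37 °C. Viability read by Bright-Glo luciferase luminescence; IC50 from linear regression of % inhibition.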

Tel-TrkA [2] = molecular target: T3, Tel-TrkA (Homo sapiens, UniProt P04629); experiment: Inhibition of proliferation of Ba/F3 cells expressing Tel-TrkA (BaF3/Tel-TrkA, luciferase/Bright Glo readout); assay type: cell-based; conditions: read-out: IC50 in BaF3/Tel-TrkA CTG cellular assay
T3 construct: dimerization domain of Tel (ETV6) transcription factor (fusion partner, human ETV6 P41212); expressed in transfected cells; host or cells: luciferase expressing Ba/F3 murine hematopoietic progenitor cells; the other entry of the earlier key: ETV6 (P41212, Transcription factor ETV6)

Tel-TrkA [3] = molecular target: T3, Tel-TrkA; experiment: as above; assay type: cell-based; conditions: read-out: Ba/F3 Tel-TrkA IC 50
Method in brief: as §1

Tel-TrkC = molecular target: T4, Tel-TrkC (Homo sapiens, UniProt Q16288); experiment: Inhibition of proliferation of Ba/F3 cells expressing Tel-TrkC (BaF3/Tel-TrkC); assay type: cell-based; conditions: read-out: Ba/F3 Tel-TrkC IC 50
T4 construct: The cells also express luciferase as the viability read-out; it is not fused to the kinase; P41212 (Transcription factor ETV6)
Protocol: Test compounds were dissolved in DMSO (10 mM) and transferred into 1.4 mL flat bottom or V-shaped Matrix tubes carrying a unique 2D matrix chip by individual compound hubs. The numbers of these chips were distinctively linked to the individual compound identification numbers. The stock solutions were stored at −20° C. if not used immediately. For the test procedure the vials were defrosted and identified by a scanner whereby a working sheet is generated that guides the subsequent working steps.
Compound dilutions were made in 384 well plates. This format enabled the assay of maximally 28 individual test compounds at 12 concentrations (single points) including 2 reference compounds. The dilution protocol included the production of pre-dilution plates, master plates and assay plates: • Compound plates: 30 μL of individual compound (10 mM) DMSO solution including standard compound were transferred into columns 1 and 13 of a 384 well plate. 20 μL of DMSO were added to the rest of the wells and the compounds were serially diluted (1:3) by transferring 10 μL from a well in column 1 or 13 to the next well in column 2 or 14 respectively and successively with the help of a Minitrack robot. • Assay plates: Identical assay plates were then prepared by adding […] each of compound dilutions of the compound plates into 384-well “assay plates”. In the following the compounds were mixed with 50 μL of assays components (cells or enzyme) and tested for their inhibitory activity.
Compounds of Formula (I) were tested for their antiproliferative effect on Ba/F3 cells expressing either Tel-TrkA, Tel-TrkB or Tel-TrkC and an additional panel of 34 selected diverse kinases activated by fusion to the dimerizing partners Bcr or Tel (Abl, A1K, BMX, EphA3, EphB2, FGFR2, FGFR3, FGFR4, FGR, FLT1, FLT3, FLT4, FMS, IGF1R, InsR, JAK1, JAK2, JAK3, KDR, Kit, Lck, Lyn, MER, MET, PDGFRb, RET, RON, Ros-1, Src, Aurora, TIE2, TYK2, Tie1, ZAP70). The antiproliferative effect of these compounds on the different cell lines and on the non transformed cells were tested at 12 different concentrations of 3-fold serially diluted compounds in 384 well plates as described above (in media lacking IL3). The IC50 values of the compounds the different cell lines were determined from dose response curves.
The cell line used is the luciferase expressing Ba/F3 murine hematopoietic progenitor cell line transformed with human Tel-TrkA, Tel-TrkB or Tel-TrkC cDNAs (Ba/F3 EN A/B/C). These cells maintained in RPMI/10% fetal bovine serum (RPMI/FCS) supplemented with penicillin 50 mg/mL, streptomycin 50 mg/mL and L-glutamine […]. Untransformed Ba/F3 cells were similarly maintained with the addition 5 ng/ml of murine recombinant IL3. 50 μl of a Ba/F3 or Ba/F3 EN A/B/C cell suspension were plated in Greiner 384 well microplates (white)) at a density of 2000 cells per well. 50 nl of serially diluted test compound (10-0.0001 mM in DMSO solution) is added to each well. The cells were incubated for 48 hours at 37° C., 5% CO2. 25 μl of Bright Glo® (Promega) luciferase substrate is added to each well. The emited luminiscence is quantified using the ACQUEST™ luminescence system (Molecular Devices). IC50 values were calculated by linear regression analysis of the percentage inhibition of each compound at 12 concentrations.

KM12 luc = KM12 luc cell proliferation assay (Table 8); assay type: cell-based; conditions: KM12 luc cells; read-out: KM12 luc IC 50
[4] = BaF3/Tel-TrkB cells, read-out: IC50 in BaF3/Tel-TrkB CTG cellular assay
[5] = BaF3, parental BaF3 cells, read-out: IC50 in BaF3 CTG cellular assay
[6] = Ba/F3 Tel-TrkB cells, read-out: Ba/F3 Tel-TrkB IC 50
[7] = BaF3, parental Ba/F3 cells, read-out: Ba/F3 IC 50

T2 sequence (P35739 33-799): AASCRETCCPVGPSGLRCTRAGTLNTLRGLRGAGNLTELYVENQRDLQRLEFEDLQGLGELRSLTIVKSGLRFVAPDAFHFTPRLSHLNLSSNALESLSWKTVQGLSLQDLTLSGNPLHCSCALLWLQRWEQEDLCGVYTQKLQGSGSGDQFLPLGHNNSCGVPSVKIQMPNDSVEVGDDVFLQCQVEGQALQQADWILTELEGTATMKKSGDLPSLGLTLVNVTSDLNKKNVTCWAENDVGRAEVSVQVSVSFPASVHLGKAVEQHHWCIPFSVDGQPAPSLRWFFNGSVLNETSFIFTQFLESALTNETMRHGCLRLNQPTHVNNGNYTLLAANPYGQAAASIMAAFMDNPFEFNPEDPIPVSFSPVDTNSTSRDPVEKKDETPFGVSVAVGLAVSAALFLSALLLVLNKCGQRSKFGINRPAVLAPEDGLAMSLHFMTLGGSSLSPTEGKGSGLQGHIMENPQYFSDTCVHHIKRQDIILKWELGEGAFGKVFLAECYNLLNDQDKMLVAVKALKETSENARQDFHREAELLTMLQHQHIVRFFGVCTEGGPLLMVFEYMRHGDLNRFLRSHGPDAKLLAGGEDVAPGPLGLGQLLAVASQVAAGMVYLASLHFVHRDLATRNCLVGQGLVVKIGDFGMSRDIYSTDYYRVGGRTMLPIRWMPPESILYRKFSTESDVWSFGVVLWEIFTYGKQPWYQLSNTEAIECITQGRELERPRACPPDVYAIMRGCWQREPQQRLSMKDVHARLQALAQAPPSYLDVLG
T2 sequence (P01139 122-241 partner): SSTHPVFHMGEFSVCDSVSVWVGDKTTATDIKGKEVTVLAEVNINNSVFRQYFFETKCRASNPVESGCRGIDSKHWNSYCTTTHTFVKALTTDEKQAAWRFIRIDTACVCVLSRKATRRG
T1 sequence (Q16620 538-822 limits assumed): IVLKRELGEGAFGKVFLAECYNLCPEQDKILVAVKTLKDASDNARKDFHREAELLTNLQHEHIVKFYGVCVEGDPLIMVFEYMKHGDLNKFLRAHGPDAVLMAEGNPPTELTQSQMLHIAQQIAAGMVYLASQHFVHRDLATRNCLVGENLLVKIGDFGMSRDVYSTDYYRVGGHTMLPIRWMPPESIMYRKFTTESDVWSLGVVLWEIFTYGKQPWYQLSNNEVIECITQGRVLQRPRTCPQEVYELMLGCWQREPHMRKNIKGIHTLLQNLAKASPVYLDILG
T3 sequence (P04629 510-796 limits assumed): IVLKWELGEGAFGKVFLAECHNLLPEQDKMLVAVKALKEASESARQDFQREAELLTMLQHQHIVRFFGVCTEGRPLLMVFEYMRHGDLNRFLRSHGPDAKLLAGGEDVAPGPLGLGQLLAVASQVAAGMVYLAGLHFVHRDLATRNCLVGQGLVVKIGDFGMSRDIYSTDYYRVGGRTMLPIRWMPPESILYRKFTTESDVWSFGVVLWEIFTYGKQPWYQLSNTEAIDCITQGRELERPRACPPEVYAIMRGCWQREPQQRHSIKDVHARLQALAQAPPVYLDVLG
T4 sequence (Q16288 whole entry, the tested form may be a part): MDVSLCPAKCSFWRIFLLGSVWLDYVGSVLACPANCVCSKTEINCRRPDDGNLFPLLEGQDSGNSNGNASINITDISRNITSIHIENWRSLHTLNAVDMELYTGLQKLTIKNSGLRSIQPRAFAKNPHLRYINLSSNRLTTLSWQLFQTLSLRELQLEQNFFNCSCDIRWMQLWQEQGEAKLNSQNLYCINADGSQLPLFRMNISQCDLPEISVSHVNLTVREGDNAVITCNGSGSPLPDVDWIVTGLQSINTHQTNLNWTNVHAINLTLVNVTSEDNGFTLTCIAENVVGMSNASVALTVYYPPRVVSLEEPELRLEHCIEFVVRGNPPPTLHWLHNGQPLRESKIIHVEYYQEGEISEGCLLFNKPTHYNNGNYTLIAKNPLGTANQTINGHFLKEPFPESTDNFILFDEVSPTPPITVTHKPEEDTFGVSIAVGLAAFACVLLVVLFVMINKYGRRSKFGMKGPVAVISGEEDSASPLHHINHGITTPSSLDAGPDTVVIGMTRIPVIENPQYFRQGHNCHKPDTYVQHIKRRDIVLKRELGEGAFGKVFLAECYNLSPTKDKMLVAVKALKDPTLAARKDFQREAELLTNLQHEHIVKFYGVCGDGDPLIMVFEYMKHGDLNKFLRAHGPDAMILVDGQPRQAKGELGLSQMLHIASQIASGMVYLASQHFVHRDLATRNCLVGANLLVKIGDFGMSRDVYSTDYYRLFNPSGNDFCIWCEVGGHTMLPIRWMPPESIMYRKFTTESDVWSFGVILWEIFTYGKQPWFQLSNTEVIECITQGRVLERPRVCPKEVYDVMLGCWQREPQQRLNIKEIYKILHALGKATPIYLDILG

IC50 (Tel-TrkB; [4]) [nM] | IC50 in BaF3/TrkA-NFG CTG cellular assay [1] [nM] | IC50 (Tel-TrkA [2]) [nM] | IC50 (Tel-TrkA [3]) [nM] | IC50 (Tel-TrkB; [6]) [nM] | IC50 (Tel-TrkC) [nM] | BaF3 TRKA-NGF CTG IC 50 [1] [nM] | Structure (SMILES) | IC50 (parental BaF3 cells; [5]) [nM] | IC50 (parental BaF3 cells; [7]) [nM] | IC50 (KM12 luc) [nM]
3.3 | 4.2 | 2.2 | – | – | – | – | O[C@@H]1CCN(c2nccc(-c3cccc(-c4cnc5ccc(N6CCC[C@@H]6c6cccc(F)c6)nn45)n3)n2)C1 [Compound 14-4, (R)-1-(4-(6-(6-((R)-2-(3-fluorophenyl)pyrrolidin-1-yl)imidazo[1,2-b]pyridazin-3-yl)pyridin-2-yl)pyrimidin-2-yl)pyrrolidin-3-ol] | 4070 | – | –
12 | 13 | 5.2 | – | – | – | – | OC1CCN(c2cc(-c3cccc(-c4cnc5ccc(N6CCC[C@@H]6c6cccc(F)c6)nn45)n3)ccn2)CC1 [Compound 16-4, (R)-1-(6-(6-(2-(3-fluorophenyl)pyrrolidin-1-yl)imidazo[1,2-b]pyridazin-3-yl)-2,4′-bipyridin-2′-yl)piperidin-4-ol] | 4410 | – | –
– | – | – | 1200 | 400 | 130 | 500 | N#Cc1cccc(-c2cnc3ccc(N4CCC(=O)N4c4cccc(F)c4)nn23)c1 [Table 3-Compound 34] | – | > 10000 | 10
– | – | – | 12 | 7.7 | 4 | 22 | C[C@H]1CN(c2ccc3ncc(-c4cccc(C#N)c4)n3n2)[C@H](c2ccccc2)C1(F)F [Table 3-Compound 52] | – | > 10000 | 6.5
– | – | – | 86 | 41 | 17 | 111 | N#Cc1cccc(-c2cnc3ccc(N4CCCC4c4ccccc4)nn23)c1 (centres unmarked) [Table 3-Compound 54] | – | > 10000 | 94
– | – | – | 44 | 49 | 14 | 108 | Fc1cccc(C2CCCCN2c2ccc3ncc(-c4ccc(N5CCOCC5)nc4)n3n2)c1 (centres unmarked) [Table 3-Compound 58] | – | 7650 | 34
– | – | – | 298 | 129 | 33 | 720 | CC1(c2cccc(F)c2)CCCN1c1ccc2ncc(-c3ccc(C#N)cc3)n2n1 (centres unmarked) [Table 3-Compound 91] | – | 8410 | 84
– | – | – | 51 | 38 | 21 | 43 | N#Cc1cc(-c2cnc3ccc(N4CCCC4c4cc(F)ccc4F)nn23)ccc1F (centres unmarked) [Table 5-Compound 1] | – | 7660 | 9.2
– | – | – | 26 | 15 | 8.4 | 49 | N#Cc1cc(-c2cnc3ccc(N4CCCC4c4cc(F)ccc4F)nn23)ccc1N1CCOCC1 (centres unmarked) [Table 5-Compound 2] | – | 6170 | 29
– | – | – | 166 | 60 | 32 | 203 | CN(C)c1ccc(-c2cnc3ccc(N4CCCC4c4cc(F)ccc4F)nn23)cc1C#N (centres unmarked) [Table 5-Compound 4] | – | 5360 | 89
– | – | – | 3.5 | 35 | 1.7 | 5.3 | N#Cc1ccc(-c2cnc3ccc(N4CCCC4c4cc(F)ccc4F)nn23)cc1N1CCC(N2CCOCC2)CC1 (centres unmarked) [Table 5-Compound 13] | – | 4840 | 7.5
– | – | – | 6.4 | 15 | 3.1 | 34 | N#Cc1ccc(-c2cnc3ccc(N4CCCC4c4cc(F)ccc4F)nn23)cc1OCCN1CCOCC1 (centres unmarked) [Table 5-Compound 17] | – | > 10000 | 8.8
– | – | – | 132 | 88 | 27 | 316 | CN1CCC(Oc2cc(-c3cnc4ccc(N5CCCC5c5cc(F)ccc5F)nn34)ccc2C#N)C1 (centres unmarked) [Table 5-Compound 22] | – | 2250 | 99
– | – | – | 136 | 74 | 16 | 111 | CN(C)CCN(C)c1cc(-c2cnc3ccc(N4CCCC4c4cc(F)ccc4F)nn23)ccc1C#N (centres unmarked) [Table 5-Compound 23] | – | 3710 | 109
– | – | – | 9 | 17 | 3 | 9 | Fc1cccc([C@H]2CCCN2c2ccc3ncc(-c4cccc(N5CCN(c6cccnc6)CC5)n4)n3n2)c1 [Table 7-Compound 255] | – | > 11000 | 6
